{"source": "patent US12419890B2", "about": "“Administration of sumo-activating enzyme inhibitor and checkpoint inhibitors” (Takeda Pharmaceutical Company Limited, priority 2019, dated 2025)", "key": {"[1]": {"tested_on": "CT26 syngeneic mouse colon fibroblast carcinoma-derived subcutaneous tumor", "experiment": "CT26 Study 2: mouse CT26 syngeneic tumor model, individual tumor volume", "assay_type": "in vivo", "details": "Compound I-263a 7.5 mg/kg IV and anti-mPD-1 10 mg/kg IP, Day 0, 3, 7, 10, 14; 9 tumors/group", "procedure": "(§1) CT26 Study 2: CT26 is a mouse colon fibroblast carcinoma cell line. CT26 mouse syngeneic tumor model was generated by subcutaneous inoculation with 0.2×10^6 CT-26 cells (cell suspension) in 10 weeks old female BALB/c mice (Vital River Laboratory Animal Technology Co., Ltd., Beijing, China) in the flank. When the mean tumor volume reached approximately 40 mm^3, the animals were randomized into one vehicle control and three treatment groups (n=9/group). Mice were then dosed with 20% HPbCD or Compound I-263a or anti-mouse PD-1 antibody over a 14-day period. Tumor growth and body weight were measured twice per week during the treatment and post-treatment periods, and mice were humanely euthanized once they had reached their humane endpoint.\n(§2) Study 2: A 0.75 mg/mL stock solution of Compound I-263a was formulated weekly in 20% HPβCD and administered intravenously (IV) based on exact animal body weight on each day of treatment, using a dosing volume of 10 mL/kg body weight. Final doses received were 7.5 mg/kg. Dosing volume for Compound I-263a was 0.2 mL. […]\n(§3) Tumors were measured twice weekly using vernier calipers. Tumor volumes were calculated using standard equation: V=W^2×L/2, where V=volume, W=width, and L=length for the tumor. […] Tumor size and body weight were measured twice a week for the duration of the study. […]"}, "[2]": {"tested_on": "CT26 syngeneic mouse colon fibroblast carcinoma-derived subcutaneous tumor", "experiment": "CT26 Study 1: mouse CT26 syngeneic tumor model, individual tumor volume", "assay_type": "in vivo", "details": "Compound I-263a 7.5 mg/kg IV Day 1, 4; anti-mPD-1 10 mg/kg IP Day 1, 4, 8, 11; 8 mice/group", "procedure": "as §1, with “Study 1:” for “Study 2:”, “in 12” for “in 10”, “mice (Jackson Laboratory, 600 Main St, Bar Harbor, ME)” for “mice (Vital River Laboratory Animal Technology Co., Ltd., Beijing, China)”, “approximately 60” for “approximately 40”, “groups (n=8/group).” for “groups (n=9/group).”\nas §2, with “1:” for “2:”, “0.825” for “0.75”\nas §3"}}, "data": [{"smiles": "Cc1sc(C(=O)c2cncnc2N[C@@H]2C[C@H](COS(N)(=O)=O)[C@@H](O)C2)cc1[C@@H]1NCCc2ccc(Cl)cc21", "note": "[Compound I-263a, [(1R,2S,4R)-4-{[5-({4-[(1R)-7-chloro-1,2,3,4-tetrahydroisoquinolin-1-yl]-5-methyl-2-thienyl}carbonyl)pyrimidin-4-yl]amino}-2-hydroxycyclopentyl]methyl sulfamate]", "values": [{"measurement": "tumor growth inhibition relative to vehicle-treated tumors", "setting": "[1]", "result": "did not show any tumor growth inhibition"}, {"measurement": "tumor growth inhibition relative to vehicle-treated tumors", "setting": "[2]", "result": "did not show any tumor growth inhibition"}]}]}
